The text below walks through data of article PMC5201133 (Journal of medicinal chemistry, 2016).

For data set [1], the target named is A2AAR. Particulars: rat (r), archival data ref 22, 24–27, cited from earlier work.
Data set [2] has as its target A1AR. The conditions noted are these: read-out: A1AR Ki; rat (r); archival data ref 22, 24–27; cited from earlier work.
Data set [3] has as its target A3AR. Particulars: read-out: A3AR Ki; rat (r); archival data ref 22, 24–27; cited from earlier work.
Data set [4] concerns the target T1, A3AR (Homo sapiens, UniProt P0DMS8).
T1 sequence (P0DMS8 1-318): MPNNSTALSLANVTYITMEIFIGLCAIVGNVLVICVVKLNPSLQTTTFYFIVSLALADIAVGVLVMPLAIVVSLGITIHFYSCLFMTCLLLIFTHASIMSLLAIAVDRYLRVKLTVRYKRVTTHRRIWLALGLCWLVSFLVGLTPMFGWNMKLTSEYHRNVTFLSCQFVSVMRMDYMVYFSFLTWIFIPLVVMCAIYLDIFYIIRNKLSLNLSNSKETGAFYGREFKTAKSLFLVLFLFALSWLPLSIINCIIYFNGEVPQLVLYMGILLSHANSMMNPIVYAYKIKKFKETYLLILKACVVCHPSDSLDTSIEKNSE
The conditions noted are these: read-out: A3AR Ki, archival data ref 22, 24–27; cited from earlier work.

Data set [5] deals with T2, 5HT2AR (Homo sapiens, UniProt P28223). Nature of the data set: 5HT2AR functional calcium mobilization assay. Format: cell-based. The conditions noted are these: 10 µM; result in words.
T2 sequence (P28223 whole entry): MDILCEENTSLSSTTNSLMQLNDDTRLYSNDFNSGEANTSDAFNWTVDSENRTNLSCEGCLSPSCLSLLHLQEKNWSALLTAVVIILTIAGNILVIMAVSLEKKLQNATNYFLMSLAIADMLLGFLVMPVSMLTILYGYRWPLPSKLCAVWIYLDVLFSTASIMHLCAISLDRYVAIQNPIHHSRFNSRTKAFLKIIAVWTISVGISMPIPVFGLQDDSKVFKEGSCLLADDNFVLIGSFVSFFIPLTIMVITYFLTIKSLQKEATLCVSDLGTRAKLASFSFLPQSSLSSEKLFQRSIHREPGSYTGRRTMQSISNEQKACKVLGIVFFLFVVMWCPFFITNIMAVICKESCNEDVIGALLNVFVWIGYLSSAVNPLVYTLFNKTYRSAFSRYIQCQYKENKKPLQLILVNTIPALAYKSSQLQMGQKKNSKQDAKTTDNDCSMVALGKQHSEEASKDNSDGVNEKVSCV
The target in data set [6] is T3, 5HT2CR (Homo sapiens, UniProt P28335).
T3 sequence (P28335 33-458): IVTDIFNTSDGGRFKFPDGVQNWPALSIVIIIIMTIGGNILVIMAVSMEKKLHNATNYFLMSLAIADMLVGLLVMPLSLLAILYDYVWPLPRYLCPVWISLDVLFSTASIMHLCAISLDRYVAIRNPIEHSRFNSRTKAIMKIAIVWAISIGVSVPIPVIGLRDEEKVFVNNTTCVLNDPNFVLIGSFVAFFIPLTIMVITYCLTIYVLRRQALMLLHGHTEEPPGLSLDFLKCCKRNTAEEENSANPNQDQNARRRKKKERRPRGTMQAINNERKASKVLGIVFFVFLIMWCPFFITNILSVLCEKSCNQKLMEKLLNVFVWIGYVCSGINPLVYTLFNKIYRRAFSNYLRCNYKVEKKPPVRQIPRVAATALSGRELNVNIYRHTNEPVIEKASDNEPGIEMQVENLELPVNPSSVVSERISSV
Kind of data set: 5HT2CR functional calcium mobilization assay. Format: cell-based. The conditions noted are these: 10 µM; result in words. Background: Calcium assays in cells follow changes in intracellular calcium, usually with a dye or a luminescent sensor.

Data set [7] concerns the target T4, 5HT2BR (Homo sapiens, UniProt P41595). Format: cell-based.
The nature of data set [8]: Cytotoxicity in HepG2 cells. Particulars: human. The data set is classed as cell-based.
The nature of data set [9]: Stability in human plasma. The data set is classed as in vitro ADME. Particulars: for remaining at 2 h: human, plasma, Stability in plasma, % remaining at 120 min.
The subject of data set [10] is 5 CYP isozymes (A2, 2C9, 2C19, 2D6, 3A4). Kind of data set: Inhibition of 5 CYP isozymes. The conditions noted are these: human. The data set is classed as in vitro ADME.
Data set [11] is described as follows: CACO cell permeability. Format: in vitro ADME. Particulars: human.
For data set [12], the target named is T4, 5HT2BR. Format: binding.
Data set [13] relates to CACO-2 cells. Kind of data set: CACO cell permeability. The data set is classed as in vitro ADME. Particulars: CACO-2 cells.
Data set [14] has as its target T1, A3AR. Kind of data set: A3AR binding, [125I]46.
Data set [15] addresses human 5HT5AR (Homo sapiens, UniProt P47898). Kind of data set: 5HT5AR binding. Particulars: result in words.
The target in data set [16] is T3, 5HT2CR. Nature of the data set: 5HT2CR radioligand binding, [3H]mesulergine 44, Flp IN HEK cell membranes. Particulars: 5HT2CR Ki, mean ± SEM; ^d n = 1.
Data set [17] has as its target hA2AAR (Homo sapiens, UniProt P29274). Kind of data set: A2AAR binding, [3H]47, HEK293 cell membranes. The conditions noted are these: read-out: A2AAR % inhibition.
The target of data set [18] is T5, A1AR (Homo sapiens, UniProt P30542).
T5 sequence (P30542 1-326): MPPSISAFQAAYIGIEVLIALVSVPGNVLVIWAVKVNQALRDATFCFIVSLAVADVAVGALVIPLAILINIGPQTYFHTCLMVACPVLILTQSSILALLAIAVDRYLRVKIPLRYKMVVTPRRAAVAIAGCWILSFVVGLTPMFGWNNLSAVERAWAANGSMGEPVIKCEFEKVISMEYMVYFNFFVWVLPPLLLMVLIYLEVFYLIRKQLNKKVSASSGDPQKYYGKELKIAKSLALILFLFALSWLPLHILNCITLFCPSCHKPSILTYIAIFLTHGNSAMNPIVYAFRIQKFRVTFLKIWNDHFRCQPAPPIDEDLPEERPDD
Nature of the data set: A1AR binding, [3H]N6-phenylisopropyladenosine 45.

Data set [19] addresses T2, 5HT2AR. Nature of the data set: 5HT2AR radioligand binding, [3H]ketanserin, HEKT cell membranes. The conditions noted are these: read-out: 5HT2AR % inhibition.
The target of data set [20] is T2, 5HT2AR. Particulars: inhibition of binding at 10 µM; archival data ref 9, 22, 24–27; cited from earlier work.
The target in data set [21] is T3, 5HT2CR. Particulars: read-out: 5HT2CR Ki; archival data ref 8, 9, 22, 24–27; cited from earlier work.

“Also recorded” adds a separate entry of the source. Where two headings read alike, the source gives them in different places. Marks after values point to notes of the source that are not given here.

T4 sequence (P41595 whole entry): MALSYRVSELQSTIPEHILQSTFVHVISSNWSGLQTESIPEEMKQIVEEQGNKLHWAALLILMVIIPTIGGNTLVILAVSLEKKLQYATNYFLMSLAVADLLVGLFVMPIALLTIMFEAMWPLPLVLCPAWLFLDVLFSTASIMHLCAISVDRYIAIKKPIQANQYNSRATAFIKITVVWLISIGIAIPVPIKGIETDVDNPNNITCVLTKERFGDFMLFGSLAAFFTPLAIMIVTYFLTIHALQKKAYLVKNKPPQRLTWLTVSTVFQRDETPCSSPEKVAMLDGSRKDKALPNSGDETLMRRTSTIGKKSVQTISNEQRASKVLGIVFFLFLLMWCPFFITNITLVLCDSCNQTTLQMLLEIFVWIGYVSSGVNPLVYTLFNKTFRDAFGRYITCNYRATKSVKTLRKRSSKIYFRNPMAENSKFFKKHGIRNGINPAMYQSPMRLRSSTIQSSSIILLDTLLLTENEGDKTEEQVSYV
Chain of hA2AAR (P29274 whole entry): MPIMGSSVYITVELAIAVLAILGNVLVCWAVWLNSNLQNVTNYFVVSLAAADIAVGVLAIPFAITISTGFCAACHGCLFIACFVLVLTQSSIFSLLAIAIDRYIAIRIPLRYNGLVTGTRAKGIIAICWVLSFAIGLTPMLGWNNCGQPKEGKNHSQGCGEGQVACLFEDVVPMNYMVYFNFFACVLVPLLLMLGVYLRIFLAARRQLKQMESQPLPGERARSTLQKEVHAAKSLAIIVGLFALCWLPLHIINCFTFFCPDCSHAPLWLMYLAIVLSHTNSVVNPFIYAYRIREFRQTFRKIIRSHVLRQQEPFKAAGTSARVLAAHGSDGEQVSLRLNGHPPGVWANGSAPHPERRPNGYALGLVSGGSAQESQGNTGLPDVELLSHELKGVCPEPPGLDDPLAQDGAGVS
Chain of human 5HT5AR (P47898 whole entry): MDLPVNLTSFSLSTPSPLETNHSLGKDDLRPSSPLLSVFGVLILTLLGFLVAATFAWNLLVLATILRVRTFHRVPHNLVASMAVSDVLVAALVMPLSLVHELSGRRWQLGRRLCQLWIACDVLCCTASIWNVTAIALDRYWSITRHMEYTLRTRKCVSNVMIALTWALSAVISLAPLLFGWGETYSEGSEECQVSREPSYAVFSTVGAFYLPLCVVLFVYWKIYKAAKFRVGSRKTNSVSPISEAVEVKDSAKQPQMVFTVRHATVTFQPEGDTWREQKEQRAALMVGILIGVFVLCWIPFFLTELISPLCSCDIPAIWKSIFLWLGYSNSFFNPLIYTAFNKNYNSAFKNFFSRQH

As to `OC[C@H]1O[C@@H](n2cnc3c(NC(C4CC4)C4CC4)ncnc32)[C@H](O)[C@@H]1O` [compound 6], the Ki in [1] (read-out: A2AAR Ki) is 1370 nM.
As for `CNC(=O)[C@H]1O[C@@H](n2cnc3c(N)ncnc32)[C@H](O)[C@@H]1O` [compound 7, reference compound], in [2], the Ki was 84 nM.
For `Nc1nc(Cl)nc2c1ncn2[C@H]1[C@H](O)[C@H](O)[C@]2(CO)C[C@H]12` [compound 12], the inhibition constant (Ki) in data set [3] is 85 nM; in data set [2] it was 273 nM.
With `CNc1nc(Cl)nc2c1ncn2[C@H]1[C@H](O)[C@H](O)[C@]2(CO)C[C@H]12` [compound 13], the A2AAR % inhibition in [1] (inhibition of binding at 10 µM) is given as <10% (r) ^c. Further, the inhibitory constant (Ki) is 23 nM in data set [4] and 1470 nM in data set [2].
On to `OC[C@@]12C[C@@H]1[C@@H](n1cnc3c(NC(C4CC4)C4CC4)nc(Cl)nc31)[C@H](O)[C@@H]2O` [compound 14, (1R,2R,3S,4R,5S)-4-(2-Chloro-6-((dicyclopropylmethyl)amino)-9H-purin-9-yl)-1-(hydroxymethyl)bicyclo[3.1.0]hexane-2,3-diol], for which the “agonist or antagonist activity at 5HT2AR” value in [5] was “no activity as agonist or antagonist”. Also, the “agonist activity at 5HT2CR” value in data set [6] is on record as “no appreciable agonist or partial agonist activity”.
With `CNC(=O)[C@@]12C[C@@H]1[C@@H](n1cnc3c(NC(C4CC4)C4CC4)nc(Cl)nc31)[C@H](O)[C@@H]2O` [compound 23, (1S,2R,3S,4R,5S)-4-(2-Chloro-6-((dicyclopropylmethyl)amino)-9H-purin-9-yl)-2,3-dihydroxy-N-methylbicyclo[3.1.0]hexane-1-carboxamide], the “agonist activity at 5HT2BR” value in data set [7] is on record as “no appreciable agonist or partial agonist activity”. Moreover, the CC50 in data set [8] was > 30000 nM. For the same compound, in [9], the “Stability in plasma, % remaining at 120 min, Human” value is 104% and the amount remaining at 2 h is ~100%. Also, the “agonist or antagonist activity at 5HT2AR” value in data set [5] is on record as “no activity as agonist or antagonist”. The “agonist activity at 5HT2CR” value in data set [6] is “no appreciable agonist or partial agonist activity”. Also, the concentration for half-maximal inhibition (IC50) in [10] is > 30000 nM. Further, the Papp B→A in data set [11] (Caco-2) came out at 46.2 ×10⁻⁶ cm/s. The same compound returned an apparent permeability from apical to basolateral (Papp A→B) in data set [11] (Caco-2, Papp, A->B, CACO-2 cells) of 4.73 ×10⁻⁶ cm/s.
For the compound `COC(=O)[C@@]12C[C@@H]1[C@@H](n1cnc3c(NC(C4CC4)C4CC4)nc(Cl)nc31)[C@H](O)[C@@H]2O` [compound 25, Methyl (1S,2R,3S,4R,5S)-4-(2-Chloro-6-((dicyclopropylmethyl)amino)-9H-purin-9-yl)-2,3-dihydroxybicyclo[3.1.0]hexane-1-carboxylate], in data set [7] (10 µM, result in words), the “agonist activity at 5HT2BR” value is on record as “no appreciable agonist or partial agonist activity”. Besides, the CC50 in data set [8] is > 30000 nM. In data set [9], the “Stability in plasma, % remaining at 120 min, Human” value turned out to be 95.3% and the fraction remaining at 2 h is ~100%. For the same compound, the “agonist or antagonist activity at 5HT2AR” value in data set [5] is reported as “no activity as agonist or antagonist”. The “agonist activity at 5HT2CR” value in [6] was “no appreciable agonist or partial agonist activity”. The “ligand efficiency (LE) in 5HT2BR binding” value in data set [12] came out at 0.37. Moreover, the concentration for half-maximal inhibition (IC50) in data set [10] was ≥ 20000 nM. Moreover, the “Papp, A->B” value in data set [13] is 18.47 10^−6 cm/sec.
`CCOC(=O)[C@@]12C[C@@H]1[C@@H](n1cnc3c(NC(C4CC4)C4CC4)nc(Cl)nc31)[C@H](O)[C@@H]2O` [compound 26, Ethyl (1S,2R,3S,4R,5S)-4-(2-chloro-6-((dicyclopropylmethyl)amino)-9H-purin-9-yl)-2,3-dihydroxybicyclo[3.1.0]hexane-1-carboxylate]: the “agonist activity at 5HT2BR” value in [7] was “did not display significant; also recorded: no appreciable agonist or partial agonist activity”. In [5], the “agonist or antagonist activity at 5HT2AR” value is “did not display significant agonist or antagonist activity; also recorded: no activity as agonist or antagonist”. For the same compound, the “agonist activity at 5HT2CR” value in data set [6] is listed as “did not display significant; also recorded: no appreciable agonist or partial agonist activity”.
In the case of `CCOC(=O)[C@@]12C[C@@H]1[C@@H](n1cnc3c(N(C)C)nc(Cl)nc31)[C@H](O)[C@@H]2O` [compound 29, Ethyl (1S,2R,3S,4R,5S)-4-(2-chloro-6-(dimethylamino)-9H-purin-9-yl)-2,3-dihydroxybicyclo[3.1.0]hexane-1-carboxylate], the “affinity at the A3AR” value in data set [14] (result in words) is on record as “no measurable affinity”.
On to `CN(C)c1nc(Cl)nc2c1ncn2[C@H]1[C@H](O)[C@H](O)[C@]2(C(=O)O)C[C@H]12` [compound 30, (1S,2R,3S,4R,5S)-4-(2-Chloro-6-(dimethylamino)-9H-purin-9-yl)-2,3-dihydroxybicyclo [3.1.0]hexane-1-carboxylic acid], for which the “binding at the human 5HT5AR” value in [15] was “bound weakly”.
In the case of `NCCNC(=O)[C@@]12C[C@@H]1[C@@H](n1cnc3c(NC(C4CC4)C4CC4)nc(Cl)nc31)[C@H](O)[C@@H]2O` [compound 31, (1S,2R,3S,4R,5S)-N-(2-Aminoethyl)-4-(2-chloro-6-((dicyclopropylmethyl)amino)-9H-purin-9-yl)-2,3-dihydroxybicyclo[3.1.0]hexane-1-carboxamide], the Ki in data set [16] is 142 ± 1 nM; in data set [18], 2580 ± 1220 nM; in data set [12], 630 ± 146 nM; in data set [14], 8110 ± 1270 nM. Further, the inhibition at 10 µM in data set [17] was 23 ± 5%; in [19] it was < 10%.
In the case of `NCCCNC(=O)[C@@]12C[C@@H]1[C@@H](n1cnc3c(NC(C4CC4)C4CC4)nc(Cl)nc31)[C@H](O)[C@@H]2O` [compound 32, (1S,2R,3S,4R,5S)-N-(3-Aminopropyl)-4-(2-chloro-6-((dicyclopropylmethyl)amino)-9H-purin-9-yl)-2,3-dihydroxybicyclo[3.1.0]hexane-1-carboxamide], the results for the inhibition constant Ki in [16] and in data set [12] were 137 ± 19 nM and 1120 ± 310 nM, respectively. In addition, the inhibition at 10 µM in data set [17] is 26 ± 5%; in data set [18] (read-out: A1AR % inhibition), 45 ± 4%; in data set [14] (read-out: A3AR % inhibition) it was 55 ± 1%; in data set [19], < 10%.
`CNC(=O)[C@@]12C[C@@H]1[C@@H](n1cnc3c(NCc4cccc(Cl)c4)nc(Cl)nc31)[C@H](O)[C@@H]2O` [compound 35]: the 5HT2AR % inhibition in [20] was 35%. Besides, the inhibition constant (Ki) in data set [21] was 168 ± 47 nM.
With `CNC(=O)[C@@]12C[C@@H]1[C@@H](n1cnc3c(N(C)C)nc(C#Cc4ccc(Cl)s4)nc31)[C@H](O)[C@@H]2O` [compound 42], in data set [14] (39 vs. 42), the “reduction of A3AR affinity” value was 34 fold.

A word on the Ki: it is a measure of affinity in units of concentration, obtained from inhibition or displacement. The term CC50 denotes the concentration that lowers cell viability or growth by half. A higher CC50 goes with lower toxicity to the cells. As a reminder, the fraction remaining is the share of the starting amount still present when the sample was taken. Read a high fraction remaining as greater stability. As a reminder, the IC50 is the concentration that gives 50% inhibition. Low values mean higher potency, high ones lower potency. As usually defined, the Papp B→A is the apparent permeability from the basolateral to the apical side of a cell layer. A word on the Papp A→B: it is how fast a substance crosses the layer from the apical side. A higher Papp A→B goes with fast passage. For orientation: inhibition means the percentage by which the read-out fell short of the control.
